Experimental findings from patent US20230127944A1, “BROAD-SPECTRUM CARBAPENEMS” (priority 2019, published 2023) are described below.

Broadly, the MIC is the least concentration at which growth counts as inhibited.

Values after ≈ are worked out from the molar mass of the structure shown.

Holding throughout (format): cell-based
Test [1] relates to P. aeruginosa ATCC 27853 (wild-type/QC strain). The experiment in a line: broth microdilution MIC assay, P. aeruginosa 27853. The note with it: Pseudomonas aeruginosa, ATCC27853; read-out: MIC, P. aeruginosa 27853. The essentials: (§1)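 Following CLSI methods, 2-fold compound dilutions are challenged with 5×10^5 CFU/mL bacteria in cation-supplemented Mueller-Hinton broth. After 16-20 hours at 37° C, the lowest well showing no bacterial growth is taken as the MIC.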
Background: In broth dilution the organism is exposed to a series of concentrations in liquid medium.

A further test concerns S. aureus USA 600. As to the kind of experiment: broth microdilution MIC assay, S. aureus USA600. The conditions noted are these: Staphylococcus aureus; S. aureus USA600 (MRSA); read-out: MIC, S. aureus USA600. The essentials: as §1
For test [2], the system named is S. aureus ATCC 33591 (methicillin-resistant). The experiment in a line: broth microdilution MIC assay, S. aureus 33591. The note with it: Staphylococcus aureus, ATCC33591; S. aureus 33591, methicillin-resistant; read-out: MIC, S. aureus 33591. In outline:
as §1

Test [3] has as its system E. coli ATCC 25922 (wild-type/QC strain). The experiment in a line: broth microdilution MIC assay, E. coli 25922. The conditions noted are these: Escherichia coli, ATCC25922; read-out: MIC, E. coli 25922. The essentials:
as §1

Test [4] has as its system P. aeruginosa ΔmexAB-OprM (an efflux pump knockout). As to the kind of experiment: broth microdilution MIC assay, P. aeruginosa ΔmexAB-OprM. The note with it: Pseudomonas aeruginosa, read-out: MIC, P. aeruginosa ΔmexAB-OprM. In outline:
as §1

For test [5], the system named is P. aeruginosa 35151 (hyper-permeable strain). The experiment in a line: broth microdilution MIC assay, P. aeruginosa 35151. The conditions noted are these: Pseudomonas aeruginosa, read-out: MIC, P. aeruginosa 35151. In outline: as §1
The next test has as its system P. aeruginosa Paeβ-17. As to the kind of experiment: broth microdilution MIC assay, P. aeruginosa Paeβ-17. The note with it: Pseudomonas aeruginosa, read-out: MIC, P. aeruginosa Paeβ-17. The essentials: as §1
A further test deals with S. aureus USA 300. As to the kind of experiment: broth microdilution MIC assay, S. aureus USA300. The note with it: Staphylococcus aureus; S. aureus USA300 (MRSA); read-out: MIC, S. aureus USA300. In outline: as §1

With `C[C@@H](O)[C@H]1C(=O)N2C(C(=O)O)=C(S[C@@H]3CCN([C@H]4CC[C@@H](NC(=N)N)CC4)C3)[C@H](C)[C@H]12` [Example 34, (4R,5S,6S)-3-(((R)-1-((1S,4S)-4-guanidinocyclohexyl)pyrrolidin-3-yl)thio)-6-((R)-1-hydroxyethyl)-4-methyl-7-oxo-1-azabicyclo[3.2.0]hept-2-ene-2-carboxylic acid], the MIC in test [1] is 1 to 4 µg/mL (≈ 2.21 to 8.86 µM); with S. aureus USA 600, 1 to 4 µg/mL (≈ 2.21 to 8.86 µM); in test [2] it was 1 to 4 µg/mL (≈ 2.21 to 8.86 µM); in test [3] it was under 1 µg/mL; in test [4], 1 to 4 µg/mL (≈ 2.21 to 8.86 µM); in test [5] it was under 1 µg/mL. Moreover, the MIC in the test with P. aeruginosa Paeβ-17 is 8 to 32 µg/mL (≈ 17.7 to 70.9 µM); with S. aureus USA 300, under 1 µg/mL.

For `C[C@@H](O)[C@H]1C(=O)N2C(C(=O)O)=C(S[C@@H]3CCN([C@@H]4CC[C@@H](N)C4)C3)[C@H](C)[C@H]12` [Example 35, (4R,5S,6S)-3-(((R)-1-((1R,3R)-3-aminocyclopentyl)pyrrolidin-3-yl)thio)-6-((R)-1-hydroxyethyl)-4-methyl-7-oxo-1-azabicyclo[3.2.0]hept-2-ene-2-carboxylic acid], the MIC in test [1] was 1 to 4 µg/mL (≈ 2.53 to 10.1 µM); with S. aureus USA 600, 1 to 4 µg/mL (≈ 2.53 to 10.1 µM); in test [2], 1 to 4 µg/mL (≈ 2.53 to 10.1 µM); in test [3], under 1 µg/mL; in test [4], 1 to 4 µg/mL (≈ 2.53 to 10.1 µM); in test [5] it was under 1 µg/mL. Moreover, the MIC in the test with P. aeruginosa Paeβ-17 was in the range of 8 to 32 µg/mL (≈ 20.2 to 80.9 µM); in the test on S. aureus USA 300, 1 to 4 µg/mL (≈ 2.53 to 10.1 µM).

For `C[C@@H](O)[C@H]1C(=O)N2C(C(=O)O)=C(S[C@@H]3CCN([C@H]4CC[C@@H](N)C4)C3)[C@H](C)[C@H]12` [Example 36, (4R,5S,6S)-3-(((R)-1-((1S,3R)-3-aminocyclopentyl)pyrrolidin-3-yl)thio)-6-((R)-1-hydroxyethyl)-4-methyl-7-oxo-1-azabicyclo[3.2.0]hept-2-ene-2-carboxylic acid], the MIC was 1 to 4 µg/mL (≈ 2.53 to 10.1 µM) in test [1]; 1 to 4 µg/mL (≈ 2.53 to 10.1 µM) with S. aureus USA 600; 1 to 4 µg/mL (≈ 2.53 to 10.1 µM) in test [2]; under 1 µg/mL in test [3]; 1 to 4 µg/mL (≈ 2.53 to 10.1 µM) in test [4]; under 1 µg/mL in test [5]. In addition, the MIC with P. aeruginosa Paeβ-17 was in the range of 8 to 32 µg/mL (≈ 20.2 to 80.9 µM); in the test on S. aureus USA 300 it was 1 to 4 µg/mL (≈ 2.53 to 10.1 µM).

In the case of `C[C@@H](O)[C@H]1C(=O)N2C(C(=O)O)=C(SC3CN(C4CCNC4)C3)[C@H](C)[C@H]12` (stereo partly drawn) [Example 37, (4R,5S,6S)-6-((R)-1-hydroxyethyl)-4-methyl-7-oxo-3-((1-(pyrrolidin-3-yl)azetidin-3-yl)thio)-1-azabicyclo[3.2.0]hept-2-ene-2-carboxylic acid], the MIC in test [1] was 8 to 32 µg/mL (≈ 21.8 to 87.1 µM); in the test on S. aureus USA 600 it was 1 to 4 µg/mL (≈ 2.72 to 10.9 µM); in test [2], 8 to 32 µg/mL (≈ 21.8 to 87.1 µM); in test [3], under 1 µg/mL; in test [4], 1 to 4 µg/mL (≈ 2.72 to 10.9 µM); in test [5] it was under 1 µg/mL. Further, the MIC with P. aeruginosa Paeβ-17 was 8 to 32 µg/mL (≈ 21.8 to 87.1 µM); in the test with S. aureus USA 300, 1 to 4 µg/mL (≈ 2.72 to 10.9 µM).

For the compound `C[C@@H](O)[C@H]1C(=O)N2C(C(=O)O)=C(S[C@H]3C[C@H](NC4CCNCC4)C3)[C@H](C)[C@H]12` [Example 38, (4R,5S,6S)-6-((R)-1-hydroxyethyl)-4-methyl-7-oxo-3-(((1R,3R)-3-(piperidin-4-ylamino)cyclobutyl)thio)-1-azabicyclo[3.2.0]hept-2-ene-2-carboxylic acid], the MIC in test [1] was 8 to 32 µg/mL (≈ 20.2 to 80.9 µM); in the test with S. aureus USA 600 it was 1 to 4 µg/mL (≈ 2.53 to 10.1 µM); in test [2], 8 to 32 µg/mL (≈ 20.2 to 80.9 µM); in test [3], under 1 µg/mL; in test [4], 1 to 4 µg/mL (≈ 2.53 to 10.1 µM); in test [5] it was under 1 µg/mL. Further, the MIC in the test on P. aeruginosa Paeβ-17 lay within 8 to 32 µg/mL (≈ 20.2 to 80.9 µM); in the test on S. aureus USA 300, 1 to 4 µg/mL (≈ 2.53 to 10.1 µM).

On to `C[C@@H](O)[C@H]1C(=O)N2C(C(=O)O)=C(SC3CN(C[C@@H]4CCN(C(=N)N)C4)C3)[C@H](C)[C@H]12` [Example 39, (4R,5S,6S)-3-((1-(((S)-1-carbamimidoylpyrrolidin-3-yl)methyl)azetidin-3-yl)thio)-6-((R)-1-hydroxyethyl)-4-methyl-7-oxo-1-azabicyclo[3.2.0]hept-2-ene-2-carboxylic acid], for which the MIC is 8 to 32 µg/mL (≈ 18.9 to 75.6 µM) in test [1]; 1 to 4 µg/mL (≈ 2.36 to 9.44 µM) in the test on S. aureus USA 600; 8 to 32 µg/mL (≈ 18.9 to 75.6 µM) in test [2]; under 1 µg/mL in test [3]; 1 to 4 µg/mL (≈ 2.36 to 9.44 µM) in test [4]; 1 to 4 µg/mL (≈ 2.36 to 9.44 µM) in test [5]. In addition, the MIC was over 32 µg/mL in the test on P. aeruginosa Paeβ-17 and 1 to 4 µg/mL (≈ 2.36 to 9.44 µM) with S. aureus USA 300.
